Data published in article PMC11858207, “Discovery of Isobavachin, a Natural Flavonoid, as an Apolipoprotein E4 (ApoE4) Structure Corrector for Alzheimer’s Disease” (Molecules, 2025).
Where “and” joins values, the source holds several entries; their conditions need not be identical. Identical values can stand only once.

Tests used:
human recombinant ApoE4 = target: T1, human recombinant ApoE4 (Homo sapiens, UniProt P02649, C130R); assay: Surface plasmon resonance (SPR) binding, ApoE4; conditions: Biacore T200
T1 construct: purchased PeproTech
T1 sequence (P02649 19-317 C130R): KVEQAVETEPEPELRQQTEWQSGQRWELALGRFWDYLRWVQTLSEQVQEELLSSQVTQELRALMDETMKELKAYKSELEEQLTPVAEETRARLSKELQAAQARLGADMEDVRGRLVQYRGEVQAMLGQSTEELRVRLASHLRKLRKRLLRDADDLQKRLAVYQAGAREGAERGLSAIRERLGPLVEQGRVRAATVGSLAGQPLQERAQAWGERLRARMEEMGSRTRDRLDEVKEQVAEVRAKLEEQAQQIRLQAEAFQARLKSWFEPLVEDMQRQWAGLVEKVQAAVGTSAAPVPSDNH
From the text: (§1) The top virtual hit Isobavachin was further subjected to surface plasmon resonance (SPR) analysis using Biacore T200 (Cytiva, Marlborough, MA, USA) to determine its binding constants with both the ApoE3 and ApoE4 proteins. Together with the human recombinant ApoE3 and ApoE4 proteins, a negative control protein 2′-deoxynucleoside 5′-phosphate N-hydrolase (His-Sumo-DNPH1) was also included in the SPR analysis. The His-Sumo-DNPH1 is structurally unrelated to ApoE proteins, while having a similar size as ApoE proteins (~30 KDa).
(§2) The biophysical binding analysis of ligands with ApoE3 and ApoE4 proteins was carried out using the SPR technique. Human recombinant ApoE3 or ApoE4 proteins were purchased from PeproTech (Cranbury, NJ, USA) and reconstituted according to the manufacturer’s instructions. The negative control protein was His-Sumo-DNPH1 (2′-deoxynucleoside 5′-phosphate N-hydrolase 1), produced in-house in E. coli by The Wistar Institute, Philadelphia. The proteins were covalently attached to a carboxymethyl dextran sensor chip (CMD700M, from Xantec bioanalytics, Düsseldorf, Germany) using standard amine coupling in HEPES buffered saline. The chip is first conditioned for 180 s at 10 µL/min with 1 M NaCl, 0.1 mM Na Borate, pH 9.0, and then activated with 250 mM EDC/100 mM NHS for 600 s at 10 µL/min. The ApoE3/4 and DNPH1 proteins diluted in 10 mM sodium acetate (pH 5.5 and 4.0, respectively) were injected and immobilized on respective flow cells. After immobilization, the remaining activated sites were blocked with 1 M ethanolamine at 10 µL/min for 180 s. Test compounds (purchased from Cayman Chemical (Ann Arbor, MI, USA) and MedChemExpress (Monmouth Junction, NJ, USA)) were first diluted in pure DMSO, which were then further diluted in the running buffer without DMSO (10 mM HEPES, pH 7.4, 150 mM NaCl, 0.005% Tween20) to match the DMSO concentrations of the sample and the running buffer. The association and dissociation times were 60s and 120s, respectively, and the flow rate was 30 µL/min. After each compound injection, the needle was washed in 50% DMSO to reduce compound carry-over. Solvent correction cycles were also included to correct for bulk refractive index changes associated with DMSO.

human recombinant ApoE3 = target: T2, human recombinant ApoE3 (Homo sapiens, UniProt P02649); assay: Surface plasmon resonance (SPR) binding, ApoE3; conditions: Biacore T200
T2 construct: purchased PeproTech
T2 sequence (P02649 19-317): as the sequence (P02649 19-317 C130R) above, with R112C counted along it
From the text: as §1, §2

[1] = target: T3, His-Sumo-DNPH1 (2′-deoxynucleoside 5′-phosphate N-hydrolase 1) (Homo sapiens, UniProt O43598); assay: Surface plasmon resonance (SPR) binding, negative control protein
T3 construct: made in house; host or cells: E. coli
T3 sequence (O43598 1-174): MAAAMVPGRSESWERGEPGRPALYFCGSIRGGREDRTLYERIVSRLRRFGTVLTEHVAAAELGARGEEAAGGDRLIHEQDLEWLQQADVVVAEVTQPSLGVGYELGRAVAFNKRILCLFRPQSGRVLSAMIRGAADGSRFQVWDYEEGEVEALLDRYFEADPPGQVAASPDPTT
From the text: as §1, §2

[2] = design: method as in PMID 29425649; conditions: cited from earlier work
ApoE4 = target: ApoE4; design: method as in PMID 30933499; conditions: experimental ApoE4 binding Kd reported by AbbVie team; read-out: NMR Kd; cited from earlier work

| Structure (SMILES) | Kd (human recombinant ApoE4) | Kd (human recombinant ApoE3) | DNPH1 Kd [1] | Kd [1] [µM] | blood–brain barrier (BBB) penetration [2] | Kd (ApoE4) [µM] |
| --- | --- | --- | --- | --- | --- | --- |
| CC(C)=CCc1cc2c(cc1O)O[C@H](c1ccc(O)cc1)CC2=O [Bavachin] | 64 µM | 59 µM | No binding |  |  |  |
| O=c1c(-c2ccc(O)cc2)coc2cc(O)ccc12 [Daidzein] | > 100 µM | > 100 µM |  | > 100 |  |  |
| O=c1c(-c2ccc(O)cc2)coc2cc(O)cc(O)c12 [Genistein] | > 100 µM | > 100 µM |  | > 100 |  |  |
| CC(C)=CCc1cc([C@@H]2CC(=O)c3ccc(O)c(CC=C(C)C)c3O2)ccc1O [Glabrol] | 77 µM | > 100 µM |  | > 100 |  |  |
| Oc1ccc(C2=Cc3ccc(O)cc3OC2)cc1 [Idronoxil] | > 100 µM | > 100 µM |  | > 100 |  |  |
| CC(C)=CCc1c(O)ccc2c1O[C@H](c1ccc(O)cc1)CC2=O [Isobavachin] | ~0.54 µM and 0.54 µM | ~0.62 µM and 0.62 µM |  | > 100 | readily penetrate |  |
| COc1cc(O)c(CC=C(C)C)c2c1C(=O)CC(c1ccc(O)cc1)O2 (stereo not shown) [Isoxanthohumol] | 40 µM | 38 µM |  | > 100 |  |  |
| CC(C)=CCc1c(-c2ccc(O)cc2O)oc2c3c(cc(O)c2c1=O)OC(C)(C)C=C3 [Morusin] | > 100 µM | > 100 µM |  | 69 |  |  |
| CC(C)=CCc1c(-c2ccc(O)cc2O)oc2c(CC=C(C)C)c(O)cc(O)c2c1=O [Mulberrin] | > 100 µM | > 100 µM |  | > 100 |  |  |
| N=C(N)C1(c2cccc(Cl)c2)CCC1 [compound 83673143] |  |  |  |  |  | 900 ± 108 |
| CC(C)(O)c1ccc(-c2cc(Cl)cc(C3(C(=N)N)CCC3)c2)cc1 [compound 137796780] |  |  |  |  |  | 30 ± 4 |
| N=C(N)C1(c2cc(Cl)cc(-c3ccccc3)c2)CCC1 [compound 155530661] |  |  |  |  |  | 230 ± 24 |
| CCNS(=O)(=O)c1ccc(-c2cc(Cl)cc(C3(C(=N)N)CCC3)c2)cc1 [compound 155552638] |  |  |  |  |  | 20 ± 4 |
| N=C(N)C1(c2cc(Cl)cc(-c3ccc(CO)c(Cl)c3)c2)CCC1 [compound 155557185] |  |  |  |  |  | 8 ± 3 |
| CC(=O)NCc1ccc(-c2cc(Cl)cc(C3(C(=N)N)CCC3)c2)cc1 [compound 155563897] |  |  |  |  |  | 20 ± 3 |
